According to patent publication US20250381269A1, “BISPECIFIC ANTIBODY BINDING EGFR AND B7-H3” (FORTVITA BIOLOGICS (SINGAPORE) PTE. LTD., priority 2022, published 2025):

Experiments:
[1] = test system: NCI-H358 tumor-bearing mice; test: Anti-tumor efficacy in NCI-H358 tumor-bearing mice, combination with AMG510; assay type: in vivo, NOG mice
Experimental: SPF female NOG mice (purchased from Beijing Vital River Laboratory Animal Technology Co., Ltd.) with certificate No. 1100112211001153625 were used in the experiment.
NCI-H358 cells were routinely subcultured for the subsequent in-vivo experiment. The cells were collected by centrifugation. Then the NCI-H358 cells were resuspended in an equal-proportion mixture of PBS (1×) and Matrigel Matrix (Corning) to prepare a cell suspension with a cell concentration of 25×10^6 cells/mL. On day 0, 0.2 mL of the cell suspension was taken and subcutaneously inoculated to the right abdominal area of NOG mice to establish NCI-H358 tumor-bearing mouse models.
Six days after the tumor cell inoculation, the tumor volume in each mouse was measured. The mice were grouped (with 7 mice in each group).
Administration was performed on days 6, 9, 12, and 15 after the inoculation of NCI-H358 cells. Mice were monitored for tumor volume and body weight twice a week. […] Mice were monitored for tumor volume twice a week, and were monitored for body weight every day during the administration, and twice a week after the end of administration. […] On day 33 after the inoculation, the relative tumor growth inhibition (TG1%) was calculated by the following formula: TG1%=100%×(control group tumor volume−treatment group tumor volume)/(control group tumor volume−control group tumor volume before administration).
Tumor volume measurement: The maximum length of major axis (L) and maximum length of minor axis (W) of tumors were measured with a vernier caliper, and tumor volume was calculated by the following formula: V=L×W^2/2. The mice were weighed using an electronic balance.

[2] = test system: LS180 (EGFR^R521K, KRAS^G12D) CRC tumor cell line; test: Proliferation inhibition experiment, LS180, combination with MRTX1133; assay type: cell-based; details: 15.62 nM MRTX1133, read as without bsAb (starting value of the increase)
Experimental: • (1) NSCLC (H358) (Cobioer, CBP60136) and CRC (LS180) (Cobioer, CBP60034): plated at 1500-2500 cells/100 μL in a 96-well low-adsorption plate (Corning, CLS7007-24EA) for 3D cell culture. • (2) The antibody molecules and small molecule inhibitors prepared in advance by dilution were added to the corresponding cell well plate, mixed well, and cultured at 37° C. with 5% CO2 for 5 days. • (3) After 5 days of continuous culture for proliferation inhibition assay, the Cell-Titer reagent (Promega, G7572) prepared in advance was added to cell wells, and the plate was left to stand at room temperature for 15-25 min in the dark. • (4) Cell-Titer and the above cell mixture were transferred to a 96-well white-bottom plate (NUNC, 136101) and detected by a multimode microplate reader (Molecular Devices, Spectra MAXi3).

SK-MES-1 = test: Proliferation inhibition experiment, SK-MES-1 (NSCLC); assay type: cell-based; details: TKI highest concentration 1000 nM
Experimental: (§1) • (1) NSCLC: plated at 1500-2500 cells/100 μL in a 96-well low-adsorption plate (Corning, CLS7007-24EA) for 3D cell culture, in which the following cell lines and specific amounts were used: • NSCLC: 2000 cells/100 μL/well • NCI-H292: Cell Bank of the Chinese Academy of Sciences, SCSP-582 • NCI-H322: Cobioer, CBP60134 • NCI-H1650: ATCC, CRL-5883 • NCI-H1975: ATCC, CRL-5908 • SK-MES-1: CoBioer, CBP60152 • NCI-H1703: ATCC, HTB-43 • PC9+hB7H3: constructed as described above • CRC and HNSCC: plated at 1500-2000 cells/100 μL in a 96-well white-bottom plate (NUNC, 136101) for 2D cell culture, in which the following cell lines and specific amounts were used: • CRC: 1500 cells/100 μL/well • CCK-81: CoBioer, CBP60581 • HT-55: CoBioer, CBP60012 • H508: CoBioer, CBP60795 • LS180: CoBioer, CBP60034 • HNSCC: 1500 cells/100 μL/well • TE-1: CoBioer, CBP60655 • Colo680: CoBioer, CBP60452. (2) The antibody molecules prepared in advance by dilution were added to the corresponding cell well plate, mixed well, and cultured in an incubator at 37° C. with 5% CO2 for 5 days. • (3) After 5 days of continuous culture for proliferation inhibition assay, the Cell-Titer reagent (Promega, G7572) prepared in advance was added to cell wells, the plate was left to stand at room temperature for 15-25 min in the dark, and then CRC and HNSCC cells were directly detected by a multimode microplate reader (Molecular Devices, Spectra MAXi3). • (4) NSCLC: Cell-Titer and the cell mixture were transferred to a 96-well white-bottom plate (NUNC, 136101) and detected by a multimode microplate reader (Molecular Devices, Spectra MAXi3).

H1703 = test: Proliferation inhibition experiment, H1703 (NSCLC); assay type: cell-based; details: NCI-H1703; TKI highest concentration 1000 nM
Experimental: as §1

Row | SMILES | sensitivity of the cell line to EGFR-TKI, in words (SK-MES-1) | sensitivity of the cell line to EGFR-TKI, in words (H1703) | further results
1 | C=CC(=O)N1CCN(c2nc(=O)n(-c3c(C)ccnc3C(C)C)c3nc(-c4c(O)cccc4F)c(F)cc23)[C@@H](C)C1 [AMG510, sotorasib] | – | – | Tumor volume (mm^3) ([1]; NCI-H358, NOG mice, antibodies 10 mg/kg i.p. Q3-4D x4 (h-IgG 20 mg/kg), AMG510 10 mg/kg intragastric QD x14, day 33): 180 mm^3; Tumor growth inhibition (%) ([1]; NCI-H358, NOG mice, antibodies 10 mg/kg i.p. Q3-4D x4, AMG510 10 mg/kg intragastric QD x14, day 33, vs h-IgG 20 mg/kg): 89%; body weight of mice ([1]; NCI-H358 tumor-bearing NOG mice, during administration and on day 33): caused a gradual decrease in the body weight of mice
2 | C#Cc1c(F)ccc2cc(O)cc(-c3ncc4c(N5CC6CCC(C5)N6)nc(OC[C@@]56CCCN5C[C@H](F)C6)nc4c3F)c12 [MRTX1133] | – | – | anti-LS180 tumor efficacy [2]: 36.45%
3 | C#Cc1cccc(Nc2ncnc3cc(OCCOC)c(OCCOC)cc23)c1 [erlotinib] | resistant and not sensitive | resistant and not sensitive | –
4 | C=CC(=O)Nc1cc(Nc2nccc(-c3cn(C)c4ccccc34)n2)c(OC)cc1N(C)CCN(C)C [osimertinib] | resistant and not sensitive | resistant and not sensitive | –
